Reference: ChEMBL document CHEMBL4257451, “Synergism of fused bicyclic 2-aminothiazolyl compounds with polymyxin B against Klebsiella pneumoniae” (Medchemcomm, 2017)

Experiments:
[1] = tested on: Klebsiella pneumoniae; assay: Synergistic antibacterial activity against Klebsiella pneumoniae SIPI-KPN-1712 assessed as polymixin B MIC at 4 ug/ml by broth microdilution method (reference value: 32 ug/ml); type: functional
[2] = tested on: Klebsiella pneumoniae; assay: Synergistic antibacterial activity against Klebsiella pneumoniae SIPI-KPN-1712 assessed as fractional Inhibitory concentration index in presence of polymixin B at 2 ug/ml by broth microdilution method; type: functional
[3] = tested on: Klebsiella pneumoniae; assay: Growth inhibition of Klebsiella pneumoniae SIPI-KPN-1712 by broth microdilution method; type: organism-based; details: in vitro

MIC [1] | SMILES | fractional inhibitory concentration index (FICI) [2] | MIC [3]
16 µg/mL | COC1CCCc2nc(Nc3ccccc3C(F)(F)F)sc21 (stereo not given) | 0.53 | > 128 µg/mL
32 µg/mL | COC1CCCc2nc(Nc3ccccc3C)sc21 (stereo not given) | 1.03 | > 128 µg/mL

Continued, compound first:

SMILES | MIC [1] | fractional inhibitory concentration index (FICI) [2] | MIC [3]
COC1CCCc2nc(Nc3cccc(Br)c3)sc21 (stereo not given) | 16 µg/mL | 0.53 | > 128 µg/mL
COC1CCCc2nc(Nc3ccc(Cl)cc3Cl)sc21 (stereo not given) | 8 µg/mL | 0.28 | > 128 µg/mL
CCOC1CCCc2nc(Nc3ccc(Br)cc3)sc21 (stereo not given) | 2 µg/mL | 0.09 | > 128 µg/mL
